Source: ChEMBL document CHEMBL5532643, “Design and synthesis of etrasimod derivatives as potent antibacterial agents against Gram-positive bacteria” (Eur J Med Chem, 2024)
Values after ≈ are worked out from the molar mass of the structure shown. Active and inactive are the calls of the source. The rule behind the calls is not given here.

What was measured:
Staphylococcus aureus [1] = test: Bactericidal activity against Staphylococcus aureus ATCC 25923 at 4 times MIC measured after 6 hrs by time kill-assay; type: functional, organism-based
Enterococcus faecalis [2] = test: Synergistic antibacterial activity against Enterococcus faecalis ATCC 29212 assessed as fractional inhibitory concentration index incubated for 18 to 20 hrs in presence of linezolid by checkboard assay; type: functional; details: time 18-20 hrs
Staphylococcus aureus [3] = test: Synergistic antibacterial activity against methicillin-resistant Staphylococcus aureus ATCC 43300 assessed as ciprofloxacin MIC incubated for 18 to 20 hrs by checkboard assay; type: functional; details: time 18-20 hrs
Staphylococcus aureus [4] = test: Antibacterial activity against Staphylococcus aureus ATCC 43300 assessed as reduction in bacterial growth incubated for 18 to 20 hrs by broth microdilution assay; type: functional; details: time 18-20 hrs
[5] = Selectivity index, ratio of CC50 for cytotoxicity against human THP-1 cells assessed as reduction in cell viability to MIC for antibacterial activity against methicillin-resistant Enterococcus faecalis assessed as reduction in bacterial growth; type: toxicity, cell-based; details: read-out: Selectivity Index
Enterococcus faecalis [6] = test: Synergistic antibacterial activity against Enterococcus faecalis ATCC 29212 assessed as fractional inhibitory concentration index incubated for 18 to 20 hrs in presence of gentamicin by checkboard assay; type: functional; details: time 18-20 hrs
Enterococcus faecalis [7] = test: Synergistic antibacterial activity against Enterococcus faecalis ATCC 29212 incubated for 18 to 20 hrs in presence of gentamicin by checkboard assay; type: functional; details: time 18-20 hrs
Cell membrane = test: Induction of cell membrane permeability in Staphylococcus aureus ATCC 25923 assessed as increase in fluorescence intensity at 4 times MIC incubated for 30 mins by PI staining based analysis; type: cell membranes
Staphylococcus aureus [8] = test: Synergistic antibacterial activity against Staphylococcus aureus ATCC 25923 incubated for 18 to 20 hrs in presence of linezolid by checkboard assay; type: functional; details: time 18-20 hrs
Staphylococcus aureus [9] = test: Synergistic antibacterial activity against Staphylococcus aureus ATCC 25923 assessed as ciprofloxacin MIC incubated for 18 to 20 hrs by checkboard assay; type: functional; details: time 18-20 hrs
[10] = Selectivity index, ratio of CC50 for cytotoxicity against human THP-1 cells assessed as reduction in cell viability to MIC for antibacterial activity against Staphylococcus aureus assessed as reduction in bacterial growth; type: toxicity, cell-based; details: read-out: Selectivity Index
Staphylococcus aureus [11] = test: Synergistic antibacterial activity against Staphylococcus aureus ATCC 25923 incubated for 18 to 20 hrs in presence of ciprofloxacin by checkboard assay; type: functional; details: time 18-20 hrs
A549 [12] = test: Cytotoxicity against human A549 cells assessed as reduction in cell viability at 100 uM incubated for 24 hrs by resazurin staining based analysis relative to control; type: functional
Staphylococcus aureus [13] = test: Drug resistance, ratio of MIC for methicillin-resistant Staphylococcus aureus after 20 days exposure to MIC for methicillin-resistant Staphylococcus aureus during first exposure; type: functional; details: time 20 day
Staphylococcus aureus [14] = test: Antibacterial activity against Staphylococcus aureus ATCC 25923 assessed as inhibition of bacterial growth at 40 uM incubated for 18 to 24 hrs by broth microdilution assay relative to control; type: functional; details: time 18-24 hrs
Staphylococcus aureus [15] = test: Synergistic antibacterial activity against Staphylococcus aureus ATCC 25923 assessed as linezolid MIC incubated for 18 to 20 hrs by checkboard assay; type: functional; details: time 18-20 hrs
Staphylococcus aureus [16] = test: Antimicrobial activity against Staphylococcus aureus ATCC 25923 infected in Caenorhabditis elegans AU37 assessed as reduction in bacterial burden at 20 uM incubated for 18 hrs; type: functional; design: scale not given: the % may be the effect or the level left
[17] = Hemolytic activity in mouse RBC assessed as hemolysis at 250 uM incubated for 1 hr; type: toxicity, cell-based, Erythrocyte; details: mouse red blood cells (erythrocytes), read-out: Activity
[18] = Hemolytic activity in mouse RBC assessed as hemolysis at 125 uM incubated for 1 hr; type: toxicity, cell-based, Erythrocyte; details: mouse red blood cells (erythrocytes), read-out: Activity
Enterococcus faecalis [19] = test: Synergistic antibacterial activity against Enterococcus faecalis ATCC 29212 assessed as ciprofloxacin MIC incubated for 18 to 20 hrs by checkboard assay; type: functional; details: time 18-20 hrs
Enterococcus faecium = test: Antibacterial activity against vancomycin-resistant Enterococcus faecium ATCC 700221 assessed as reduction in bacterial growth incubated for 18 to 20 hrs by broth microdilution assay; type: functional; details: time 18-20 hrs
Staphylococcus aureus [20] = test: Synergistic antibacterial activity against Staphylococcus aureus ATCC 25923 incubated for 18 to 20 hrs in presence of gentamicin by checkboard assay; type: functional; details: time 18-20 hrs
Enterococcus faecalis [21] = test: Synergistic antibacterial activity against Enterococcus faecalis ATCC 29212 incubated for 18 to 20 hrs in presence of vancomycin by checkboard assay; type: functional; details: time 18-20 hrs
Enterococcus faecalis [22] = test: Synergistic antibacterial activity against Enterococcus faecalis ATCC 29212 assessed as linezolid MIC incubated for 18 to 20 hrs by checkboard assay; type: functional; details: time 18-20 hrs
Staphylococcus aureus [23] = test: Synergistic antibacterial activity against Staphylococcus aureus ATCC 25923 assessed as vancomycin MIC incubated for 18 to 20 hrs by checkboard assay; type: functional; details: time 18-20 hrs
Enterococcus faecalis [24] = test: Antibacterial activity against Enterococcus faecalis ATCC 29212 assessed as reduction in bacterial growth incubated for 18 to 20 hrs by broth microdilution assay; type: functional; details: time 18-20 hrs
A549 [25] = test: Cytotoxicity against human A549 cells assessed as reduction in cell viability incubated for 24 hrs by resazurin staining based analysis; type: functional
Staphylococcus aureus [26] = test: Bactericidal activity against Staphylococcus aureus ATCC 25923 assessed as log reduction in colony forming units at 0.5 to 8 times MIC measured after 6 hrs by time kill-assay; type: functional
Staphylococcus aureus [27] = test: Bactericidal activity against methicillin-resistant Staphylococcus aureus assessed as reduction in bacterial growth at 0.5 to 8 times MIC incubated for 24 hrs by time-kill assay; type: functional
Staphylococcus aureus [28] = test: Antibiofilm activity against Staphylococcus aureus ATCC 25923 assessed as inhibition of biofilm biomass at 100 uM incubated for 18 to 20 hrs by crystal violet staining based assay; type: functional; details: time 18-20 hrs
Staphylococcus aureus [29] = test: Synergistic antibacterial activity against methicillin-resistant Staphylococcus aureus ATCC 43300 assessed as vancomycin MIC incubated for 18 to 20 hrs by checkboard assay; type: functional; details: time 18-20 hrs
Staphylococcus aureus [30] = test: Synergistic antibacterial activity against methicillin-resistant Staphylococcus aureus ATCC 43300 assessed as fractional inhibitory concentration index incubated for 18 to 20 hrs in presence of vancomycin by checkboard assay; type: functional; details: time 18-20 hrs
Staphylococcus aureus [31] = test: Drug resistance, ratio of MIC for Staphylococcus aureus ATCC 25923 after 20 days exposure to MIC for Staphylococcus aureus ATCC 25923 during first exposure; type: functional; details: time 20 day
Enterococcus faecalis [32] = test: Synergistic antibacterial activity against Enterococcus faecalis ATCC 29212 incubated for 18 to 20 hrs in presence of ciprofloxacin by checkboard assay; type: functional; details: time 18-20 hrs
[33] = Selectivity index, ratio of CC50 for cytotoxicity against human THP-1 cells assessed as reduction in cell viability to MIC for antibacterial activity against methicillin-resistant Enterococcus faecium assessed as reduction in bacterial growth; type: toxicity, cell-based; details: read-out: Selectivity Index
[34] = Selectivity index, ratio of CC50 for cytotoxicity against human THP-1 cells assessed as reduction in cell viability to MIC for antibacterial activity against methicillin-resistant Staphylococcus aureus assessed as reduction in bacterial growth; type: toxicity, cell-based; details: read-out: Selectivity Index
Staphylococcus aureus [35] = test: Antibacterial activity against […] Staphylococcus aureus ATCC 43300 assessed as reduction in bacterial growth incubated for 18 to 20 hrs by broth microdilution assay; type: functional; details: time 18-20 hrs
[36] = system: Staphylococcus epidermidis; test: Antibacterial activity against Staphylococcus epidermidis RP62A assessed as reduction in bacterial growth incubated for 18 to 20 hrs by broth microdilution assay; type: functional; details: time 18-20 hrs
Enterococcus faecalis [37] = test: Synergistic antibacterial activity against Enterococcus faecalis ATCC 29212 assessed as gentamicin MIC incubated for 18 to 20 hrs by checkboard assay; type: functional; details: time 18-20 hrs

**Q.** With `O=C(O)c1cc2cc(OCc3ccc(C4CCCCC4)c(C(F)(F)F)c3)ccc2[nH]1` as the compound, how does the Activity (Staphylococcus aureus [1]) read?
**A.** Active

**Q.** And the “fractional inhibitory concentration index (FICI)” value (Enterococcus faecalis [2])?
**A.** 2

**Q.** What about the MIC (Staphylococcus aureus [3]) of the same compound?
**A.** 1.25 µM

**Q.** And the MIC (Staphylococcus aureus [4])?
**A.** 2.5 µM (≈ 1.04 µg/mL)

**Q.** What about the selectivity ratio [5] of the same compound?
**A.** > 12

**Q.** What about the “fractional inhibitory concentration index (FICI)” value (Enterococcus faecalis [6]) of the same compound?
**A.** 0.375

**Q.** What about the MIC (Enterococcus faecalis [7]) of the same compound?
**A.** 1.25 µM

**Q.** And the Activity (Cell membrane)?
**A.** inactive

**Q.** What about the MIC (Staphylococcus aureus [8]) of the same compound?
**A.** 2.5 µM

**Q.** And the MIC (Staphylococcus aureus [9])?
**A.** 0.312 µM

**Q.** What about the selectivity ratio [10] of the same compound?
**A.** > 12

**Q.** And the MIC (Staphylococcus aureus [11])?
**A.** 2.5 µM

**Q.** And the Activity (A549 [12])?
**A.** ~20%

**Q.** What about the Ratio (Staphylococcus aureus [13]) of the same compound?
**A.** 3

**Q.** And the inhibition at 40 µM (Staphylococcus aureus [14])?
**A.** ≤ 90%

**Q.** What about the MIC (Staphylococcus aureus [15]) of the same compound?
**A.** 5 µM

**Q.** What about the Activity (Staphylococcus aureus [16]) of the same compound?
**A.** >85%

**Q.** What about the hemolysis at 1 h, 250 µM [17] of the same compound?
**A.** 100%

**Q.** And the hemolysis at 1 h, 125 µM [18]?
**A.** 57%

**Q.** What about the MIC (Enterococcus faecalis [19]) of the same compound?
**A.** 1.25 µM

**Q.** And the MIC (Enterococcus faecium)?
**A.** 5 µM (≈ 2.09 µg/mL)

**Q.** And the MIC (Staphylococcus aureus [20])?
**A.** 1.25 µM

**Q.** What about the MIC (Enterococcus faecalis [21]) of the same compound?
**A.** 5 µM

**Q.** And the MIC (Enterococcus faecalis [22])?
**A.** 10 µM

**Q.** What about the MIC (Staphylococcus aureus [23]) of the same compound?
**A.** 0.625 µM

**Q.** What about the MIC (Enterococcus faecalis [24]) of the same compound?
**A.** 5 µM (≈ 2.09 µg/mL)

**Q.** What about the CC50 (A549 [25]) of the same compound?
**A.** > 100 µM

**Q.** What about the “log(activity)” value (Staphylococcus aureus [26]) of the same compound?
**A.** >3

**Q.** What about the MBC (Staphylococcus aureus [27]) of the same compound?
**A.** 5 µM (≈ 2.09 µg/mL)

**Q.** And the inhibition at 100 µM (Staphylococcus aureus [28])?
**A.** > 90%

**Q.** And the MIC (Staphylococcus aureus [29])?
**A.** 1.25 µM

**Q.** What about the “fractional inhibitory concentration index (FICI)” value (Staphylococcus aureus [30]) of the same compound?
**A.** 2

**Q.** What about the Ratio (Staphylococcus aureus [31]) of the same compound?
**A.** 3

**Q.** What about the MIC (Enterococcus faecalis [32]) of the same compound?
**A.** 1.25 µM

**Q.** And the selectivity ratio [33]?
**A.** > 12

**Q.** And the selectivity ratio [34]?
**A.** > 12

**Q.** What about the MIC (Staphylococcus aureus [35]) of the same compound?
**A.** 2.5 µM (≈ 1.04 µg/mL)

**Q.** And the MIC [36]?
**A.** 2.5 µM (≈ 1.04 µg/mL)

**Q.** And the MIC (Enterococcus faecalis [37])?
**A.** 1 µg/mL
